Common to all, as to assay: NCI-60 cell line screen, 48 h
The subject of assay [1] is 786-0 renal.
Assay [2] relates to A549 NSCLC.
The subject of assay [3] is ACHN renal.
Assay [4] concerns COLO 205 colon.
For assay [5], the system named is HT29 colon.
Assay [6] concerns MDA-MB-231 breast.
Assay [7] relates to NCI-H226 lung.
The subject of assay [8] is NCI-H460 lung.
Assay [9] deals with OVCAR-5 ovarian.
The test system of assay [10] is T-47D breast.

Molecules are shown by their SMILES. Several values for one entry are separate records, joined by “and”; a condition that tells them apart may be missing. Identical values can stand only once.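 48-hour exposure; five concentrations; linearly interpolated endpoints. Here, GI50 denotes the concentration required for 50% inhibition of growth. TGI denotes the concentration required for complete inhibition of growth.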 A value given as a limit tells only on which side of the number the result lay.

For the compound `O=C(Nc1cccc2cccnc12)c1ccc(N2C(=O)[C@@H]3[C@H](C2=O)[C@@H]2C=C[C@H]3C2)cc1`, the GI50 is above 74.2 µM in [1]; 26.2 µM in assay [2]; 36.4 µM in [3]; 37.6 µM in [4]; 18 µM in assay [5]; 33.2 µM in [6]. The GI50 in assay [7] was 19.8 µM; in assay [8], 34.6 µM; in [9], 55.9 µM; in assay [10], 20.2 µM. The TGI was above 100 µM in [1]; above 100 µM in assay [2]; above 100 µM in [3]; above 100 µM in [4]; 62.4 µM in assay [5]; above 100 µM in assay [6]. Also, the TGI in [7] is above 88.6 µM; in assay [8], above 100 µM; in assay [9] it was above 100 µM; in [10], above 79.3 µM.

For `O=C1NC(=O)C2(CCC(O)C2)c2cc[n+]([O-])cc21` (stereo not given), the TGI in assay [1], in [2], in assay [3], in assay [4], in [5] and in [6] was above 100 µM in each case. Besides, the TGI in [7], in [8], in [9] and in assay [10] was above 100 µM throughout.

As for `O=C(c1ccco1)c1c(C(F)(F)F)nc2cc(C(F)(F)F)ccc2[n+]1[O-]`, the GI50 in assay [1] was 36.7 µM; in assay [2], 48.4 µM; in [3], 82.1 µM; in [4] it was above 100 µM; in assay [5] it was above 100 µM; in assay [6], 18.9 µM. Also, the GI50 is above 100 µM in assay [7], 56 µM in assay [8], 67.8 µM in [9] and 18.9 µM in assay [10]. The TGI in assay [1] was above 100 µM; in [2], above 100 µM; in [3], above 100 µM; in assay [4] it was above 100 µM; in assay [5], above 100 µM; in assay [6], 40.9 µM. Besides, the TGI in [7] is above 100 µM; in assay [8] it was above 100 µM; in assay [9], above 100 µM; in [10], 49.6 µM.

Turning to `COc1cc(OC)c(OC)cc1/C=C1\C=Cc2ccccc21`, the TGI was above 100 µM in assay [1]; above 100 µM in [2]; above 100 µM in assay [3]; above 100 µM in assay [4]; above 100 µM in [5]; 50.9 µM in assay [6]. For the same compound, the TGI in assay [7] was above 100 µM; in [8] it was 38 µM; in assay [9], above 100 µM; in [10], above 100 µM.

With `CC12CCc3ccccc3C1=Nc1ccccc12` (stereo not given), the TGI in assay [1], in [2], in assay [3], in [4], in [5] and in [6] was above 100 µM in each case. The TGI in [7] is 89.8 µM; in assay [8], above 100 µM; in assay [9], above 100 µM; in assay [10] it was above 100 µM.

`O=C1C=CN(C2OC(CO)C(O)C2O)C(=O)C1` (stereo not given): the TGI in assay [1] is 1260 µM; in assay [2], 625 µM and > 2500 µM; in assay [3] it was above 2500 µM; in [4] it was 625 µM and > 2500 µM; in [5], 625 µM and > 1730 µM; in assay [6], above 2500 µM. Besides, the TGI in [7] was above 2500 µM; in [8] it was 625 µM and 569 µM; in assay [9], above 2500 µM; in [10], above 1750 µM. Besides, the GI50 is 28.9 µM in assay [2]; 60.2 µM in assay [4]; 13 µM in assay [5]; above 625 µM in assay [7]; 0.728 µM in [8].

For the compound `COc1cc(-c2nc(SCC(=O)Nc3ccc(C(C)=O)cc3)[nH]c(=O)c2C#N)cc(OC)c1OC`, the GI50 is 41.7 µM in assay [1]; above 100 µM in assay [2]; 85 µM in assay [3]; above 100 µM in assay [4]; 55.7 µM in assay [5]; 38.7 µM in assay [6]. Further, the GI50 is 89.8 µM in assay [7], 39.1 µM in assay [8], 85.1 µM in assay [9] and 34 µM in assay [10]. The TGI in [1], in assay [2], in assay [3], in assay [4], in [5] and in [6] was above 100 µM each time. In addition, the TGI in [7], in [8], in [9] and in assay [10] was above 100 µM throughout.
